From patent publication US11384115B2, “Nuclear sulfated oxysterol, potent regulator of lipid homeostasis, for therapy of hypercholesterolemia, hypertriglycerides, fatty liver diseases, and atherosclerosis” (Virginia Commonwealth University, priority 2004, dated 2022)

Tests used:
HMG CoA reductase = assay: Western blot of HMG CoA reductase protein in HepG2 cells; format: cell-based, human
Description: FIGS. 15A-15D. 25HC3S regulates HMGR mRNA Expression. Real time RT-PCR analysis of HMG CoA R reductase expression in HepG2 cells (FIGS. 15A and 15B). Western blot analysis of protein levels of HMG CoA reductase (FIG. 15C). Total RNAs were purified using SV Total RNA Isolation Kit (Promega) from the cells treated with 25HC3S at concentrations as indicated (FIG. 15A) and incubation at 12 μM of 25HC3S for the different times (effect on HMG CoA mRNA) (FIG. 15B). Two μg of total RNA was used for cDNA preparation (RT) and performed as manufacture recommended (Invitrogen), and 10 ng of cDNA was used for real time PCR. The expression levels were normalized to GAPDH. The bands of HMG CoA reductase (HMGR) were quantitated by laser density scanning. Each value represents mean of three experiments±standard derivation.
Microsomal proteins (80 μg) were separated on a 7.5% SDS-polyacrylamide denaturing gel according to the method of Laemmli (14). Following SDS-PAGE (Hoefer Vertical Slab Gel Unit; Heofer, San Francisco, Calif.), proteins were electrophoretically transferred overnight (4° C.) to Immobilon-P membranes using a Hoefer Trans Blot Electrophoretic Transfer cell. The membranes were then blocked for 90 minutes (25° C.) in blocking buffer (PBS, pH 7.4, 0.1% Tween, 5% non-fat dry milk). […] Protein bands were detected using the Amersham ECL plus Kit.

[1] = system: ABCA1, ABCG1, ABCG5, ABCG8 gene expression; assay: LXR targeting gene expression by real time RT-PCR in primary hepatocytes; format: cell-based, mouse
Excerpt: FIG. 10. ABCA1 (A1), ABCG1 (G1), LDL receptor (LDLR), ABCG5 (G5), and ABCG8 (G8) gene expression in primary mouse hepatocytes following addition of the purified nuclear oxysterol. At 24 hrs following the addition, cells were harvested and total RNAs were extracted and gene expression levels were quantitated by real time RT-PCR. β-Actin mRNA was used as total mRNA internal standard. The gene expression levels in cells […] were compared with those in control cells. Ten μg of total RNA was used for cDNA preparation (RT) and 10 ng of cDNA was used for PCR. The expression levels were normalized to β-actin.
Preliminary experiments have shown that the purified nuclear oxysterol up-regulates bile acid synthesis. To further investigate the mechanism of this activity, the effect of purified 5-cholesten-3β, 25-diol 3-sulphate on gene expression of LXR-targeted cholesterol transport proteins ABCA1, ABCG1, ABCG5, ABCG8, and LDLR was investigated. Purified nuclear sulfated oxysterol was added to primary hepatocytes in culture, and mRNA levels of the transport proteins were quantitated by real time RT-PCR. The primer sets and TagMan probes for detection of mRNA levels were purchased from AB Applied Biosystem (Foster City, Calif.) and the reactions were performed on an MJ Research DNA Engine Opticon instrument.

HepG2 cells = assay: Cholesterol biosynthesis from [1-14C]acetate by TLC and HPLC; format: cell-based, human; conditions: HepG2, 25HC3S 6 hrs then [14C]acetate 4 hrs
Description: After incubation of HepG2 cells with media containing 25HC3S for 6 hrs, cultures in 25-cm2 flasks were given 3 ml of the same fresh medium containing 5 μCi of the [1-^14C]acetate. After 4 hr incubation at 37° C., the media were removed and the cells were washed twice with phosphate-saline buffer (PBS), harvested with rubber police as described, and collected in Eppendoff tubes. The cells were sedimented by centrifugation and the pellets were washed three times by resuspension and sedimentation. The pellets were resuspended in 0.3 ml of PBS. The total lipids were extracted and separated by adding 3 volume of chloroform:methanol (v/v, 1:1). [^14C]Cholesterol and 27-hydroxycholesterol was isolated into chloroform phase and separated on TLC (tuluene:acetyl acetate, 2/3, v/v/). [1-^14C]acetate derivatives were visualized by Image Reader, Fujifilm BAS-1800 II.
[1-^14C]Acetate derivatives in the chloroform phase were analyzed by HPLC on an Ultrasphere Silica column (5μ×4.6 mm×25 cm; Backman, USA) using HP Series 1100 solvent delivery system (Hewlett Packard) at 1.3 ml/min flow rate. The column was equilibrated and run in a solvent system of hexane:isopropanol:glacial acetic acid (965:25:10, v/v/v), as the mobile phase. The effluents were collected every 0.5 min (0.65 ml per fraction) except as indicated. The counts in [^14C]acetate derivatives were determined by Scintillation Counting. […]

PPARγ = biological target: T1, PPARγ (Homo sapiens, UniProt P37231); assay: PPARγ transcription factor assay (PPRE-immobilized ELISA) of nuclear extracts; format: cell-based; conditions: THP-1 macrophages, 4 hrs, concentration-dependent
T1 construct: THP-1 monocytes were differentiated to macrophages by adding 100 nM of phorbol 12-myristate 13-acetate (PMA); endogenous in cells; host or cells: THP-1 monocyte-derived macrophages (human, ATCC)
T1 sequence (P37231 1-505): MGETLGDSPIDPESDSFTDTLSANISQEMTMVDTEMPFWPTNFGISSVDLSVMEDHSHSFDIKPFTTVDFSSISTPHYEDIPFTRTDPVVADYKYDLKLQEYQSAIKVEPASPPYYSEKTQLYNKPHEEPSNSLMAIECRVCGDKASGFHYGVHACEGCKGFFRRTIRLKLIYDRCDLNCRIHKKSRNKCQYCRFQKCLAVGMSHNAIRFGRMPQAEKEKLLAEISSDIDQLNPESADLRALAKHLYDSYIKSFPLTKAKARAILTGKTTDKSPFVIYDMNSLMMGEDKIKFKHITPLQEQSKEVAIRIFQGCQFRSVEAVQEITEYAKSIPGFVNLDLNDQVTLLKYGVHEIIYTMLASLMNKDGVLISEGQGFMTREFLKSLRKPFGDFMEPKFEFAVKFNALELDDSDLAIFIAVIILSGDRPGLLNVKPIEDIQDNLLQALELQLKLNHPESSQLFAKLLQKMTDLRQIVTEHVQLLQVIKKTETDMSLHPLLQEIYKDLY
Description: PPAR response elements (PPRE) binding activities were measured using an enzyme-linked immunosorbent assay (PPAR transcription factor assay kit; Cayman Chemical, Ann Arbor, Mich.). The 96-well plate was preimmobilized with deoxyoligonucleoties containing PPRE. […] The cells were then rinsed and nuclear proteins were extracted according to the manufacturer's instructions. Total nuclear extract protein, 10 g from each sample, was added to the plate. The kit provided two negative as zero controls, one positive as maximal binding control, and one competitive as specific binding control (in the presence of dsDNA) were used in the assay. After incubating for 1 hr, the wells were washed and incubated with primary PPAR antibody which recognizes the accessible epitope on PPAR protein upon PPRE binding. The peroxidase-labeled second antibody was added and incubated for 1 hr. The reaction was stopped and absorbance was read at 450 nm in a spectrophotometer.

[2] = primary hepatocytes in culture, mRNA

PPRE-binding activities of the nuclear extracts (PPARγ): significantly increased
Compound: C[C@H](CCCC(C)(C)O)[C@H]1CC[C@H]2[C@@H]3CC=C4C[C@@H](OS(=O)(=O)O)CC[C@]4(C)[C@H]3CC[C@]12C [25HC3S, 5-cholesten-3β, 25-diol 3-sulphate]
decrease of HMG CoA reductase protein level (HMG CoA reductase): 50% | increased expression of ABCA1 [1, 2]: 2 fold | increased expression of ABCG5 [1, 2]: 1.6 fold | increased expression of ABCG8 [1, 2]: 3 fold | expression of ABCG1 ([1]; primary hepatocytes, compared with control cells): did not change | free [14C]cholesterol synthesized from [14C]acetate (HepG2 cells): significantly decreased
